Source: patent US20210371351A1, “MIXTURES COMPRISING AT LEAST TWO DIFFERENT NITRIFICATION INHIBITORS SELECTED FROM 2-(3,4-DIMETHYL-1H-PYRAZOL-1-YL)SUCCINIC ACID (DMPSA), 3,4-DIMETHYL PYRAZOLIUM GLYCOLATE (DMPG) AND OTHER COMPOUNDS” (BASF SE, priority 2017, published 2021)

Experiments:
nitrification [1] = experiment: Example 5: soil incubation in bottles with ammonium sulfate, DMPSA, DCD or mixtures, 5 to 15° C., 0 up to 56 days; recovery NH4 (RE/RC), net recovery NH4 (NE/NC), inhibition of NO3 formation (IE/IC, Böhland; Colby); set-up: unit not given here
Description: 100 g soil is filled into 500 ml plastic bottles (e.g. soil sampled from the field) and is moistened to 50% water holding capacity. The soil is incubated at 20° C. for two weeks to activate the microbial biomass. 1 ml test solution, containing the compositions and mixtures of the invention in the appropriate concentration, or DMSO and 5 to 10 mg nitrogen in the form of ammoniumsulfate-N is added to the soil and everything mixed well. Bottles are capped but loosely to allow air exchange. The bottles are then incubated at 5 to 15° C. for 0 up to 56 days.
For analysis, 300 ml of a 1% K2SO4-solution is added to the bottle containing the soil and shaken for 2 hrs in a horizontal shaker at 150 rpm. Then the whole solution is filtered through a Macherey-Nagel Filter MN 807′/. Ammonium and nitrate content is then analyzed in the filtrate in an autoanalyzer at 550 nm (Merck, AA11).
The Böhland equation is described in Böhland, H., et al. (1973) “Mittel zur Hemmung bzw. Regelung der Nitrifikation von Ammoniumstickstoff in Kulturböden”. DDR-Wirtschaftspatent (Economic patent of the German Democratic Republic) C 05c 169 727. Cited by: Peschke, H. (1985) “Zur Bewertung der inhibierenden Wirkung von Nitrifiziden im Boden”, Zbl. Mikrobiol. 140, pp. 583-588.

nitrification [2] = experiment: Example 4: soil column trial (soil Limburgerhof), DMPSA and DMPP, other weight ratios; incubation 10 d at 15° C.; % inhibition of NO3-N formation (Böhland), Colby; conditions: 10 days of incubation at 15° C.; 0.005% DMPP, 0.45% DMPSA
Text: The effect on NH4+ retention and NH4+ to NO3− ratios in the soil after fertilization of ammonium sulfate with the addition of DMPP, DMPSA or a combination of DMPP and DMPSA was investigated in column trials simulating climatic conditions of spring time in central Europe. Soil Limburgerhof (pH(CaCl2) 6.8, texture: 73% sand; 24% silt, 3% clay) was filled dry into a glass column with an inner width of 4 cm. At the bottom 0.4 g cotton wool was placed above which a frit (Co. Robu, pore size 1) was placed above which 100 g of 2 mm sieved soil Limburgerhof was layered. The soil height in the column was about 7 cm. Before fertilization the soil was brought to about 60% of its water holding capacity (WHC) be adding 14.4 mL of deionized water. Per column 10 mg NH4—N as ammonium sulfate was fertilized or not (control) together or not with 0.005% or 0.015% DMPP (DMPP obtained from BASF SE), 0.45% DMPSA (DMPSA used as free acid obtained from BASF SE) and […] or 0.015% DMPP plus 0.45% DMPSA (% of nitrification inhibitor w/w of NH4-N). Every treatment was replicated three times. After fertilization, 50 mL demineralized water was carefully and slowly placed on top of each column which equals about 31 mm precipitation. After 24 h the eluate was collected and by sucking off the soil to bring it back to about 60% of its WHC. All handlings including soil preparation, fertilization and the temperature of the water for both wetting the soil and the artificial precipitation up to the collection of the eluate 24 h after fertilization was performed at 5° C.
Thereafter, the columns were incubated for 10 d or 20 d at constantly 15° C. in an incubator. After 7 d and 14 d water was added by weight where needed to bring the soils uniformly to 60% WHC. After 10 d or 20 d the soil was removed from the columns and extracted with 1% (w/w) K2SO4 solution by shaking for 2 h at room temperature. The filtrated extract was then analyzed for NH4+ and NO3− colorimetrical by an autoanalyzer.
To calculate the inhibition of nitrate formation by the nitrification inhibitors during the incubation, the above-mentioned Böhland equation was used. To examine synergistic effects of the combination of DMPP+DMPSA the formula by Colby (Colby, S.R., “Calculating synergistic and antagonistic responses of herbicide Combinations”, Weeds, 15, pp. 20-22, 1967) was used. To determine background levels of NH4+ to NO3−, every treatment was also extracted immediately after fertilization and after leaching prior to the further incubation at 15° C. for 10 d or 20 d.

2-(3,4-dimethyl-1H-pyrazol-1-yl)succinic acid and/or 2-(4,5-dimethyl-1H-pyrazol-1-yl)succinic acid [DMPSA]
IE (inhibition of NO3 formation, Böhland) (nitrification [1]; IT10° C., DAT42, % a.i. DMPSA 0.25, DCD 1): 66
IE (inhibition of NO3 formation, Böhland) (nitrification [1]; IT10° C., DAT42, % a.i. DMPSA 0.25, DCD 3): 66
IE (inhibition of NO3 formation, Böhland) (nitrification [1]; IT10° C., DAT42, % a.i. DMPSA 0.30, DCD 0.05): 46
IE (inhibition of NO3 formation, Böhland) (nitrification [1]; IT10° C., DAT42, % a.i. DMPSA 0.50, DCD 0.08): 52
IE (inhibition of NO3 formation, Böhland) (nitrification [1]; IT10° C., DAT56, % a.i. DMPSA 0.25, DCD 1): 65
IE (inhibition of NO3 formation, Böhland) (nitrification [1]; IT10° C., DAT56, % a.i. DMPSA 0.25, DCD 3): 65
IE (inhibition of NO3 formation, Böhland) (nitrification [1]; IT10° C., DAT56, % a.i. DMPSA 0.30, DCD 0.05): 47
IE (inhibition of NO3 formation, Böhland) (nitrification [1]; IT10° C., DAT56, % a.i. DMPSA 0.50, DCD 0.08): 47
IE inhibition of NO3 formation (nitrification [1]; IT15° C., DAT10, % a.i.: DMPSA 0.5, DCD 1, DMPSA + DCD 0.5 + 1 (1:2)): 50
IE inhibition of NO3 formation (nitrification [1]; IT15° C., DAT10, % a.i.: DMPSA 0.5, DCD 3, DMPSA + DCD 0.5 + 3 (1:6)): 50
IE inhibition of NO3 formation (nitrification [1]; IT15° C., DAT20, % a.i.: DMPSA 0.5, DCD 1, DMPSA + DCD 0.5 + 1 (1:2)): 74
IE inhibition of NO3 formation (nitrification [1]; IT15° C., DAT20, % a.i.: DMPSA 0.5, DCD 3, DMPSA + DCD 0.5 + 3 (1:6)): 74
IE (inhibition of NO3 formation, Böhland) (nitrification [1]; IT15° C., DAT28, % a.i. DMPSA 0.25, DCD 1): 70
IE (inhibition of NO3 formation, Böhland) (nitrification [1]; IT15° C., DAT28, % a.i. DMPSA 0.25, DCD 3): 70
IE inhibition of NO3 formation (nitrification [1]; IT15° C., DAT28, % a.i.: DMPSA 0.30, DCD 0.05, DMPSA + DCD 0.30 + 0.05 (6:1)): 39
IE inhibition of NO3 formation (nitrification [1]; IT15° C., DAT28, % a.i.: DMPSA 0.50, DCD 0.0125, DMPSA + DCD 0.50 + 0.0125 (40:1)): 44
IE inhibition of NO3 formation (nitrification [1]; IT15° C., DAT28, % a.i.: DMPSA 0.50, DCD 0.0143, DMPSA + DCD 0.50 + 0.0143 (35:1)): 44
IE inhibition of NO3 formation (nitrification [1]; IT15° C., DAT28, % a.i.: DMPSA 0.50, DCD 0.0167, DMPSA + DCD 0.50 + 0.0167 (30:1)): 44
IE inhibition of NO3 formation (nitrification [1]; IT15° C., DAT28, % a.i.: DMPSA 0.50, DCD 0.08, DMPSA + DCD 0.50 + 0.08 (6.25:1)): 40
IE inhibition of NO3 formation (nitrification [1]; IT15° C., DAT30, % a.i.: DMPSA 0.5, DCD 1, DMPSA + DCD 0.5 + 1 (1:2)): 74
IE inhibition of NO3 formation (nitrification [1]; IT15° C., DAT30, % a.i.: DMPSA 0.5, DCD 3, DMPSA + DCD 0.5 + 3 (1:6)): 74
IE (inhibition of NO3 formation, Böhland) (nitrification [1]; IT15° C., DAT42, % a.i. DMPSA 0.25, DCD 1): 55
IE (inhibition of NO3 formation, Böhland) (nitrification [1]; IT15° C., DAT42, % a.i. DMPSA 0.25, DCD 3): 55
IE inhibition of NO3 formation (nitrification [1]; IT15° C., DAT42, % a.i.: DMPSA 0.30, DCD 0.05, DMPSA + DCD 0.30 + 0.05 (6:1)): 29
IE inhibition of NO3 formation (nitrification [1]; IT15° C., DAT42, % a.i.: DMPSA 0.50, DCD 0.08, DMPSA + DCD 0.50 + 0.08 (6.25:1)): 44
IE (inhibition of NO3 formation, Böhland) (nitrification [1]; IT15° C., DAT56, % a.i. DMPSA 0.25, DCD 1): 35
IE (inhibition of NO3 formation, Böhland) (nitrification [1]; IT15° C., DAT56, % a.i. DMPSA 0.25, DCD 3): 35
IE inhibition of NO3 formation (nitrification [1]; IT15° C., DAT56, % a.i.: DMPSA 0.30, DCD 0.05, DMPSA + DCD 0.30 + 0.05 (6:1)): 27
IE inhibition of NO3 formation (nitrification [1]; IT15° C., DAT56, % a.i.: DMPSA 0.50, DCD 0.08, DMPSA + DCD 0.50 + 0.08 (6.25:1)): 27
During incubation: % inhibition of NO3—N formation by NI acc. to Böhland equation (1973) (MV) (nitrification [2]): 22.9%
Net NI effect % NH4 from fertilized NH4 (MV) (nitrification [2]): 9.36%
Ratio NH4—N/NO3—N (MV) (nitrification [2]): 0.20
Soil mg/100 g NH4—N (MV) (nitrification [2]): 0.96 mg/100 g
Soil mg/100 g NO3—N (MV) (nitrification [2]): 5.15 mg/100 g
